# In article PMC5766609 (Scientific Reports, 2018):
# Read-outs that look alike come from different tables or passages of the source. Residues, ends and D or L forms follow the SMILES beside them.
# What was measured:
# [1] = target: T1, human GLP-1 receptor (GLP1R) (Homo sapiens, UniProt P43220); experiment: cAMP assay on CHO-JumpIn cells stably transfected with human GLP-1 receptor (HitHunter cAMP); format: cell-based; conditions: Table 2, cAMP accumulation, buffer PBS, 0.1% BSA, 100 μM RO 20-1724, 20% serum, 1 hr at RT, value ± spread, read-out: EC50 GLP1R;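 further: peptides tested as 4-fold serial dilution series, cells exposed 1 hr at RT in the dark, cAMP quantified against a cAMP standard calibration curve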
# T1 construct: expressed in transfected cells; host or cells: CHO-JumpIn cells, stably transfected
# T1 sequence (P43220 24-463): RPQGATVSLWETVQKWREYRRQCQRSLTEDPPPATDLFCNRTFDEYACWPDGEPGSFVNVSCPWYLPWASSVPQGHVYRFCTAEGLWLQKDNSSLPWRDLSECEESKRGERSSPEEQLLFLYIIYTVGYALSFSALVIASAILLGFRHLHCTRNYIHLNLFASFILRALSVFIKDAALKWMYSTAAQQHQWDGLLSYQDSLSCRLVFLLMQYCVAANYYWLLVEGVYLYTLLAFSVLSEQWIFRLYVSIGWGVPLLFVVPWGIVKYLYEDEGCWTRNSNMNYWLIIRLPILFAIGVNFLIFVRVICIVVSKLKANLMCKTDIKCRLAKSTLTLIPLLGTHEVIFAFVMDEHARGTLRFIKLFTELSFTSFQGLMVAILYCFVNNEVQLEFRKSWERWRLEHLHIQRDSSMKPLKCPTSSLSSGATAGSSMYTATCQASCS
# Method: (§1) Briefly, a 2 μM solution of peptide was prepared, and 4-fold serial dilutions were made. 150 nL of the above titration was then dispensed into an Optiplate384 using an Echo555. […] The HitHunter® cAMP Assay kit calibration curve was prepared following the manufacturer’s protocol (DiscoveRx-90-0075L). 30,000 cells/well were added to the peptides, spun briefly at 500 rpm for 15 s and incubated at RT in the dark for 1 hr. The assay was developed as per the manufacturer’s instructions. cAMP accumulation due to GLP1R agonism or GCGR agonism was measured using an EnVision platereader (PerkinElmer), and calibrated using the cAMP standard curve. Data were analyzed using Assay Data Analyzer (ADA).
# [2] = target: T2, human glucagon receptor (GCGR) (Homo sapiens, UniProt P47871); experiment: cAMP assay on CHO-JumpIn cells stably transfected with human glucagon receptor (HitHunter cAMP); format: cell-based; conditions: cAMP accumulation, CHO-JumpIn cells with human GCGR, value ± spread;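 further: peptides tested as 4-fold serial dilutions starting from a 2 µM solution, cells exposed 1 hr at RT in darkness, cAMP quantified against a cAMP standard curve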
# T2 construct: expressed in transfected cells; host or cells: CHO-JumpIn cells, stably transfected
# T2 sequence (P47871 26-477): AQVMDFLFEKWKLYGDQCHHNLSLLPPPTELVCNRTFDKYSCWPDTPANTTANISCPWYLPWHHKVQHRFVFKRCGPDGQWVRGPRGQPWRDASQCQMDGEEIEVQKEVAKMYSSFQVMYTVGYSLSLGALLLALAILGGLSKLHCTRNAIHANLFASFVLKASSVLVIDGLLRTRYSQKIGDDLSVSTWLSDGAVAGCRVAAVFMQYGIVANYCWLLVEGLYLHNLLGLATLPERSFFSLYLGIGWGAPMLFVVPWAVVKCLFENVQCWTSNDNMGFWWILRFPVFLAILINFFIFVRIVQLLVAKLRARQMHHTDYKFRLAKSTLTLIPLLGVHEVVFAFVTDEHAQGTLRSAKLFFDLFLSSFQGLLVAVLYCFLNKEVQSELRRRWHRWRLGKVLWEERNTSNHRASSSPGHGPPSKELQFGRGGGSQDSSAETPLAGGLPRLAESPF
# Method: as §1
# [3] = Table 2, buffer PBS, 0.1% BSA, 100 μM RO 20-1724, 20% serum, 1 hr at RT, read-out: EC50 GCGR
SMILES,EC50 [1] [nM],"EC50 [2, 3] [nM]","EC50 ([2]; Table 3, engineered versus parent peptides, read-out: EC50 hGCGR) [nM]"
CC(C)C[C@H](NC(=O)[C@H](Cc1ccc(O)cc1)NC(=O)[C@H](CCCCN)NC(=O)[C@H](CO)NC(=O)[C@H](Cc1ccc(O)cc1)NC(=O)[C@H](CC(=O)O)NC(=O)[C@H](CO)NC(=O)[C@H](Cc1ccccc1)NC(=O)[C@H](Cc1ccccc1)NC(=O)[C@@H](NC(=O)CNC(=O)[C@H](CCC(N)=O)NC(=O)[C@H](CO)NC(=O)[C@@H](N)Cc1c[nH]cn1)[C@@H](C)O)C(=O)N[C@@H](CC(=O)O)C(=O)N[C@@H](CO)C(=O)N[C@@H](CCCNC(=N)N)C(=O)N[C@@H](CCCNC(=N)N)C(=O)N[C@@H](C)C(=O)N[C@@H](CCC(N)=O)C(=O)N[C@@H](CC(=O)O)C(=O)N[C@@H](Cc1ccccc1)C(=O)N[C@H](C(=O)N[C@@H](CCC(N)=O)C(=O)N[C@@H](Cc1c[nH]c2ccccc12)C(=O)N[C@@H](CC(C)C)C(=O)N[C@@H](CC(C)C)C(=O)N[C@@H](CCC(=O)O)C(=O)N[C@H](C(N)=O)[C@@H](C)O)C(C)C [Peptide 34] (H-HSQGTFFSDYSKYLDSRRAQDFVQWLLET-NH2),51.9 ± 57.7,0.027 ± 0.005,–
CSCC[C@H](NC(=O)[C@H](CC(C)C)NC(=O)[C@H](Cc1c[nH]c2ccccc12)NC(=O)[C@H](CCC(N)=O)NC(=O)[C@@H](NC(=O)[C@H](Cc1ccccc1)NC(=O)[C@H](CC(=O)O)NC(=O)[C@H](Cc1c[nH]c2ccccc12)NC(=O)[C@H](C)NC(=O)[C@H](C)NC(=O)[C@H](CCCNC(=N)N)NC(=O)[C@H](CCC(=O)O)NC(=O)[C@H](CC(=O)O)NC(=O)[C@H](CC(C)C)NC(=O)[C@H](Cc1ccc(O)cc1)NC(=O)[C@H](CCCCN)NC(=O)[C@H](CCCNC(=N)N)NC(=O)[C@H](Cc1ccc(O)cc1)NC(=O)[C@H](CC(=O)O)NC(=O)[C@H](CO)NC(=O)[C@@H](NC(=O)[C@H](Cc1ccccc1)NC(=O)[C@@H](NC(=O)CNC(=O)[C@H](CCC(N)=O)NC(=O)[C@H](CO)NC(=O)[C@@H](N)Cc1c[nH]cn1)[C@@H](C)O)[C@@H](C)O)C(C)C)C(=O)N[C@@H](CC(N)=O)C(=O)N[C@H](C(N)=O)[C@@H](C)O [Peptide 3] (H-HSQGTFTSDYRKYLDERAAWDFVQWLMNT-NH2),0.427 ± 0.022,1.35 ± 0.173,–
CSCC[C@H](NC(=O)[C@H](CC(C)C)NC(=O)[C@H](Cc1c[nH]c2ccccc12)NC(=O)[C@H](CCC(N)=O)NC(=O)[C@@H](NC(=O)[C@H](Cc1ccccc1)NC(=O)[C@H](CC(=O)O)NC(=O)[C@H](Cc1ccc(O)cc1)NC(=O)[C@H](C)NC(=O)[C@H](CCCNC(=N)N)NC(=O)[C@H](CC(C)C)NC(=O)[C@H](CCC(=O)O)NC(=O)[C@H](CC(=O)O)NC(=O)[C@H](CC(C)C)NC(=O)[C@H](Cc1ccc(O)cc1)NC(=O)[C@H](CCCCN)NC(=O)[C@H](CO)NC(=O)[C@H](Cc1ccc(O)cc1)NC(=O)[C@H](CC(=O)O)NC(=O)[C@H](CO)NC(=O)[C@@H](NC(=O)[C@H](Cc1ccccc1)NC(=O)[C@@H](NC(=O)CNC(=O)[C@H](CCC(N)=O)NC(=O)[C@H](CO)NC(=O)[C@@H](N)Cc1c[nH]cn1)[C@@H](C)O)[C@@H](C)O)C(C)C)C(=O)N[C@@H](CC(N)=O)C(=O)N[C@H](C(N)=O)[C@@H](C)O [Peptide 10] (H-HSQGTFTSDYSKYLDELRAYDFVQWLMNT-NH2),0.038 ± 0.009,0.057 ± 0.021,–
CC(C)C[C@H](NC(=O)[C@H](CC(C)C)NC(=O)[C@H](Cc1c[nH]c2ccccc12)NC(=O)[C@H](CCC(N)=O)NC(=O)[C@@H](NC(=O)[C@H](Cc1ccccc1)NC(=O)[C@H](CC(=O)O)NC(=O)[C@H](CCC(N)=O)NC(=O)[C@H](C)NC(=O)[C@H](CCCNC(=N)N)NC(=O)[C@H](CCCNC(=N)N)NC(=O)[C@H](CO)NC(=O)[C@H](CC(=O)O)NC(=O)[C@H](CC(C)C)NC(=O)[C@H](Cc1ccc(O)cc1)NC(=O)[C@H](CCCCN)NC(=O)[C@H](CO)NC(=O)[C@H](Cc1ccc(O)cc1)NC(=O)[C@H](CC(=O)O)NC(=O)[C@H](CO)NC(=O)[C@@H](NC(=O)[C@H](Cc1ccccc1)NC(=O)[C@@H](NC(=O)CNC(=O)[C@H](CCC(N)=O)NC(=O)[C@H](CO)NC(=O)[C@@H](N)Cc1c[nH]cn1)[C@@H](C)O)[C@@H](C)O)C(C)C)C(=O)N[C@@H](CC(=O)O)C(=O)N[C@@H](CO)C(N)=O [Peptide 35],0.018 ± 0.001,–,–

# Next, values leading:
EC50 [1] [nM],"EC50 [2, 3] [nM]","EC50 ([2]; Table 3, engineered versus parent peptides, read-out: EC50 hGCGR) [nM]",SMILES
0.184 ± 0.006,2.24 ± 0.334,–,CSCC[C@H](NC(=O)[C@H](CC(C)C)NC(=O)[C@H](Cc1c[nH]c2ccccc12)NC(=O)[C@H](CCC(N)=O)NC(=O)[C@@H](NC(=O)[C@H](Cc1ccccc1)NC(=O)[C@H](CC(=O)O)NC(=O)[C@H](Cc1c[nH]cn1)NC(=O)[C@H](C)NC(=O)[C@H](CCCNC(=N)N)NC(=O)[C@H](CCCNC(=N)N)NC(=O)[C@H](CC(=O)O)NC(=O)[C@H](CCC(=O)O)NC(=O)[C@@H](NC(=O)[C@H](Cc1ccc(O)cc1)NC(=O)[C@H](CCCCN)NC(=O)[C@H](CO)NC(=O)[C@H](Cc1ccc(O)cc1)NC(=O)[C@H](CC(=O)O)NC(=O)[C@H](CO)NC(=O)[C@@H](NC(=O)[C@H](Cc1ccccc1)NC(=O)[C@@H](NC(=O)CNC(=O)[C@H](CCC(N)=O)NC(=O)[C@H](CO)NC(=O)[C@@H](N)Cc1c[nH]cn1)[C@@H](C)O)[C@@H](C)O)C(C)C)C(C)C)C(=O)N[C@@H](CC(N)=O)C(=O)N[C@H](C(N)=O)[C@@H](C)O [Peptide 2] (H-HSQGTFTSDYSKYVEDRRAHDFVQWLMNT-NH2)
8.96 ± 1.84,> 200,–,CSCC[C@H](NC(=O)[C@H](CO)NC(=O)[C@@H](NC(=O)[C@H](CCSC)NC(=O)[C@@H](NC(=O)[C@H](Cc1ccccc1)NC(=O)[C@H](CC(=O)O)NC(=O)[C@H](CCC(N)=O)NC(=O)[C@H](C)NC(=O)[C@H](CCCNC(=N)N)NC(=O)[C@H](CCCNC(=N)N)NC(=O)[C@H](CO)NC(=O)[C@H](CC(=O)O)NC(=O)[C@H](CC(C)C)NC(=O)[C@H](Cc1ccc(O)cc1)NC(=O)[C@H](CCCCN)NC(=O)[C@H](CO)NC(=O)[C@H](Cc1ccc(O)cc1)NC(=O)[C@H](CC(=O)O)NC(=O)[C@H](CO)NC(=O)[C@@H](NC(=O)[C@H](Cc1ccccc1)NC(=O)[C@@H](NC(=O)CNC(=O)[C@H](CCC(N)=O)NC(=O)[C@H](CO)NC(=O)[C@@H](N)Cc1c[nH]cn1)[C@@H](C)O)[C@@H](C)O)C(C)C)[C@@H](C)O)C(=O)N[C@@H](CC(N)=O)C(=O)N[C@H](C(N)=O)[C@@H](C)O [Peptide 26]
16.7 ± 10.3,8.45 ± 2.67,–,CSCC[C@H](NC(=O)[C@H](CC(C)C)NC(=O)[C@H](Cc1c[nH]c2ccccc12)NC(=O)[C@H](CCC(N)=O)NC(=O)[C@@H](NC(=O)[C@H](Cc1ccccc1)NC(=O)[C@H](CC(=O)O)NC(=O)[C@H](CCC(N)=O)NC(=O)[C@H](C)NC(=O)[C@H](CCCNC(=N)N)NC(=O)[C@H](CCCNC(=N)N)NC(=O)[C@H](CO)NC(=O)[C@H](CC(=O)O)NC(=O)[C@H](CC(C)C)NC(=O)[C@H](Cc1ccc(O)cc1)NC(=O)[C@H](CCCCN)NC(=O)[C@H](CO)NC(=O)[C@H](Cc1ccc(O)cc1)NC(=O)[C@H](CC(=O)O)NC(=O)[C@H](CO)NC(=O)[C@H](Cc1c[nH]c2ccccc12)NC(=O)[C@H](Cc1ccccc1)NC(=O)[C@H](CC(N)=O)NC(=O)CNC(=O)[C@@H](NC(=O)[C@H](CO)NC(=O)[C@@H](N)Cc1c[nH]cn1)C(C)C)C(C)C)C(=O)N[C@@H](CC(C)C)C(=O)N[C@H](C(N)=O)[C@@H](C)O [Peptide 1] (H-HSVGNFWSDYSKYLDSRRAQDFVQWLMLT-NH2)
–,–,0.023 ± 0.004,CCCCCCCCCCCCCCCC(=O)N[C@@H](CCC(=O)N[C@@H](CCC(=O)NCCCC[C@H](NC(=O)[C@H](CC(=O)O)NC(=O)[C@H](CO)NC(=O)[C@@H](NC(=O)[C@H](Cc1ccccc1)NC(=O)[C@@H](NC(=O)CNC(=O)[C@H](CCC(N)=O)NC(=O)[C@@H](CO)NC(=O)[C@@H](N)Cc1c[nH]cn1)[C@@H](C)O)[C@@H](C)O)C(=O)N[C@@H](CO)C(=O)N[C@@H](CCCCN)C(=O)N[C@@H](Cc1ccc(O)cc1)C(=O)N[C@@H](CC(C)C)C(=O)N[C@@H](CC(=O)O)C(=O)N[C@@H](CO)C(=O)N[C@@H](CCCNC(=N)N)C(=O)N[C@@H](CCCNC(=N)N)C(=O)N[C@@H](C)C(=O)N[C@@H](Cc1c[nH]cn1)C(=O)N[C@@H](CC(=O)O)C(=O)N[C@@H](Cc1ccccc1)C(=O)N[C@H](C(=O)N[C@@H](CCC(N)=O)C(=O)N[C@@H](Cc1c[nH]c2ccccc12)C(=O)N[C@@H](CC(C)C)C(=O)N[C@@H](CC(C)C)C(=O)N[C@@H](CC(N)=O)C(=O)N[C@H](C(N)=O)[C@@H](C)O)C(C)C)C(=O)O)C(=O)O [Peptide 36]
–,2.6 ± 3.68,–,CC[C@H](C)[C@H](N)C(=O)N[C@@H](CC(N)=O)C(=O)N[C@@H](Cc1c[nH]cn1)C(=O)N[C@@H](CCC(=O)O)C(=O)N[C@@H](CCC(N)=O)C(=O)N[C@@H](Cc1c[nH]c2ccccc12)C(=O)N[C@@H](C)C(=O)N[C@@H](Cc1ccccc1)C(=O)N[C@H](C(=O)N[C@@H](CO)C(=O)N[C@@H](CC(=O)O)C(=O)N[C@@H](Cc1ccc(O)cc1)C(=O)N[C@@H](CO)C(=O)N[C@@H](CCCCN)C(=O)N[C@@H](Cc1ccc(O)cc1)C(=O)N[C@@H](CC(C)C)C(=O)N[C@@H](CC(=O)O)C(=O)N[C@@H](CO)C(=O)N[C@@H](CCCNC(=N)N)C(=O)N[C@@H](CCCNC(=N)N)C(=O)N[C@@H](C)C(=O)N[C@@H](CCC(N)=O)C(=O)N[C@@H](CC(=O)O)C(=O)N[C@@H](Cc1ccccc1)C(=O)N[C@H](C(=O)N[C@@H](CCC(N)=O)C(=O)N[C@@H](Cc1c[nH]c2ccccc12)C(=O)N[C@@H](CC(C)C)C(=O)N[C@@H](CCSC)C(=O)N[C@@H](CC(N)=O)C(=O)N[C@H](C(N)=O)[C@@H](C)O)C(C)C)[C@@H](C)O [Peptide 14] (H-INHEQWAFTSDYSKYLDSRRAQDFVQWLMNT-NH2)
